Data reported in ChEMBL document CHEMBL5390254, “Discovery and Optimization of Novel hDHODH Inhibitors for the Treatment of Inflammatory Bowel Disease” (J Med Chem, 2023).

Columns and labels:
[1] = Acute toxicity in BALB/c mouse assessed as tissue damage in spleen at 600 mg/kg,po and measured after 14 days by hematoxylin and eosin staining based microscopy; format: organism-based; settings: in vivo, 336 h, time 14 day
Mus musculus [2] = assay: Anti-inflammatory activity against DSS-induced acute ulcerative colitis in C57BL/6 mouse model assessed as decrease in IL-6 production in colon at 40 mg/kg, po QD for 6 days by ELISA; format: functional; parameters: scale not given: the % may be the effect or the level left; settings: time 6 day
[3] = Half life in Sprague-Dawley rat at 15 mg/kg, po and measured upto 48 hrs by LC-MS/MS analysis; format: ADME, organism-based; settings: in vivo
Mus musculus [4] = assay: Anti-inflammatory activity against DSS-induced acute ulcerative colitis in C57BL/6 mouse model assessed as recovery in colon damage at 20 to 80 mg/kg, po QD for 6 days by H and E staining based microscopy; format: functional, organism-based; settings: dose 20-80 mg/kg, time 6.0 day
[5] = AUCt in Sprague-Dawley rat at 15 mg/kg, po and measured upto 48 hrs by LC-MS/MS analysis; format: ADME, organism-based; parameters: dose 15 mg/kg, time < 48 hrs, route po; settings: in vivo
[6] = Acute toxicity in BALB/c mouse assessed as tissue damage in liver at 600 mg/kg,po and measured after 14 days by hematoxylin and eosin staining based microscopy; format: organism-based; settings: in vivo, 336 h, time 14 day
Mus musculus [7] = assay: Anti-inflammatory activity against DSS-induced acute ulcerative colitis in C57BL/6 mouse model assessed as decrease in IL-17 protein level in colon at 20 to 80 mg/kg, po QD for 6 days by ELISA; format: functional, organism-based; settings: dose 20-80 mg/kg, time 6.0 day
[8] = Acute toxicity in BALB/c mouse assessed as changes in LDH level in serum at 600 mg/kg,po and measured after 14 days by Biochemistry analysis; format: organism-based; settings: in vivo, 336 h, time 14 day
[9] = Clearance in Sprague-Dawley rat at 15 mg/kg, po and measured upto 48 hrs by LC-MS/MS analysis; format: ADME, organism-based; settings: in vivo
[10] = Acute toxicity in BALB/c mouse assessed as changes in RBC level in blood at 600 mg/kg,po and measured after 14 days by hematology test; format: organism-based, Erythrocyte; settings: in vivo, 336 h, time 14 day
[11] = Acute toxicity in BALB/c mouse assessed as tissue damage in heart at 600 mg/kg,po and measured after 14 days by hematoxylin and eosin staining based microscopy; format: organism-based; settings: in vivo, 336 h, time 14 day
[12] = Acute toxicity in BALB/c mouse assessed as death at 600 mg/kg,po and measured for 14 days; format: organism-based; settings: in vivo, 336 h, time 14 day
[13] = Metabolic stability in human liver microsomes assessed as half life at 3 uM incubated upto 90 mins in presence of NADPH by LC-MS/MS analysis; format: ADME, Microsome
[14] = Metabolic stability in mouse liver microsomes assessed as half life at 3 uM incubated upto 90 mins in presence of NADPH by LC-MS/MS analysis; format: ADME, Microsome
[15] = Acute toxicity in BALB/c mouse assessed as changes in lymph level in blood at 600 mg/kg,po and measured after 14 days by hematology test; format: organism-based; settings: in vivo, 336 h, time 14 day
[16] = Cmax in Sprague-Dawley rat at 5 mg/kg, iv and measured upto 48 hrs by LC-MS/MS analysis; format: ADME, organism-based; parameters: time < 48 hrs, dose 5 mg/kg, route iv; settings: in vivo
[17] = Clearance in Sprague-Dawley rat at 5 mg/kg, iv and measured upto 48 hrs by LC-MS/MS analysis; format: ADME, organism-based; settings: in vivo
[18] = Acute toxicity in BALB/c mouse assessed as changes in ALP level in serum at 600 mg/kg,po and measured after 14 days by Biochemistry analysis; format: organism-based; settings: in vivo, 336 h, time 14 day
Mus musculus [19] = assay: Anti-inflammatory activity against DSS-induced acute ulcerative colitis in C57BL/6 mouse model assessed as decrease in body weight loss at 20 mg/kg, po QD for 6 days (Rvb= -13.4%); format: functional; parameters: scale not given: the % may be the effect or the level left; settings: time 6 day
Mus musculus [20] = assay: Anti-inflammatory activity against DSS-induced acute ulcerative colitis in C57BL/6 mouse model assessed as decrease in body weight loss at 80 mg/kg, po QD for 6 days (Rvb= -13.4%); format: functional; parameters: scale not given: the % may be the effect or the level left; settings: time 6 day
[21] = Acute toxicity in BALB/c mouse assessed as changes in UA level in serum at 600 mg/kg,po and measured after 14 days by Biochemistry analysis; format: organism-based; settings: in vivo, 336 h, time 14 day
[22] = Metabolic stability in rat liver microsomes assessed as half life at 3 uM incubated upto 90 mins in presence of NADPH by LC-MS/MS analysis; format: ADME, Microsome
[23] = Acute toxicity in BALB/c mouse assessed as changes in hemoglobin level in blood at 600 mg/kg,po and measured after 14 days by hematology test; format: organism-based; settings: in vivo, 336 h, time 14 day
Mus musculus [24] = assay: Anti-inflammatory activity against DSS-induced acute ulcerative colitis in C57BL/6 mouse model assessed as decrease in IL-1beta protein level in colon at 20 to 80 mg/kg, po QD for 6 days by ELISA; format: functional, organism-based; settings: dose 20-80 mg/kg, time 6.0 day
Mus musculus [25] = assay: Anti-inflammatory activity against DSS-induced acute ulcerative colitis in C57BL/6 mouse model assessed as decrease in IL-17 mRNA expression level in colon at 20 to 80 mg/kg, po QD for 6 days by RT-qPCR analysis; format: functional, organism-based; settings: dose 20-80 mg/kg, time 6.0 day
[26] = Acute toxicity in BALB/c mouse assessed as changes in CREA level in serum at 600 mg/kg,po and measured after 14 days by Biochemistry analysis; format: organism-based; settings: in vivo, 336 h, time 14 day
[27] = Acute toxicity in BALB/c mouse assessed as changes in platelet count in blood at 600 mg/kg,po and measured after 14 days by hematology test; format: organism-based; settings: in vivo, 336 h, time 14 day
Mus musculus [28] = assay: Anti-inflammatory activity against DSS-induced acute ulcerative colitis in C57BL/6 mouse model assessed as decrease in colon length shortening at 40 mg/kg, po QD for 6 days (Rvb= 5.5cm); format: functional; settings: time 6 day
[29] = Drug distribution in colon of DSS-induced acute ulcerative colitis in C57BL/6 mouse model at 40 mg/kg,po and measured after 0.5 hrs by LC-MS/MS analysis; format: ADME, organism-based; settings: in vivo
Mus musculus [30] = assay: Anti-inflammatory activity against DSS-induced acute ulcerative colitis in C57BL/6 mouse model assessed as decrease in colon tissue damage score at 40 mg/kg, po QD for 6 days relative to DSS group; format: functional; parameters: scale not given: the % may be the effect or the level left; settings: time 6 day
Mus musculus [31] = assay: Anti-inflammatory activity against DSS-induced acute ulcerative colitis in C57BL/6 mouse model assessed as decrease in body weight loss at 40 mg/kg, po QD for 6 days (Rvb= 25.6%); format: functional; parameters: scale not given: the % may be the effect or the level left; settings: time 6 day
[32] = Acute toxicity in BALB/c mouse assessed as changes in CK level in serum at 600 mg/kg,po and measured after 14 days by Biochemistry analysis; format: organism-based; settings: in vivo, 336 h, time 14 day
[33] = Metabolic stability in mouse liver microsomes assessed as intrinsic clearance at 3 uM incubated upto 90 mins in presence of NADPH by LC-MS/MS analysis; format: ADME, Microsome; settings: read-out: CLH
[34] = Acute toxicity in BALB/c mouse assessed as changes in urea level in serum at 600 mg/kg,po and measured after 14 days by Biochemistry analysis; format: organism-based; settings: in vivo, 336 h, time 14 day
[35] = Acute toxicity in BALB/c mouse assessed as changes in AST level in serum at 600 mg/kg,po and measured after 14 days by Biochemistry analysis; format: organism-based; settings: in vivo, 336 h, time 14 day
[36] = Half life in Sprague-Dawley rat at 5 mg/kg, iv and measured upto 48 hrs by LC-MS/MS analysis; format: ADME, organism-based; settings: in vivo
[37] = Oral bioavailability in Sprague-Dawley rat at 15 mg/kg and measured upto 48 hrs by LC-MS/MS analysis; format: ADME, organism-based; settings: in vivo
[38] = 1-octanol/water partition coefficient, logP of the compound at 2 mg by UPLC analysis; format: physicochemical

Nc1nc(-c2cn(Cc3c(F)cccc3Cl)c3ncccc23)ncc1C1CC1
Activity [1]: Non-Toxic | Activity (Mus musculus [2]): 77.73% | half-life [3]: 96 min | Activity (Mus musculus [4]): Dose-Dependent Effect | AUC(0-t) at 48 h [5]: 11600 ng·h/mL | Activity [6]: Non-Toxic | Activity (Mus musculus [7]): Dose-Dependent Effect | Activity [8]: Non-Toxic | CL/F [9]: 21.7 mL/min/kg | Activity [10]: Non-Toxic | Activity [11]: Non-Toxic | Activity [12]: Non-Toxic | half-life at 3 µM [13]: 18.9 min | half-life at 3 µM [14]: 9.4 min | Activity [15]: Non-Toxic | Cmax [16]: 12300 ng/mL | clearance [17]: 5 mL/min/kg | Activity [18]: Non-Toxic | Activity (Mus musculus [19]): -5.1% | Activity (Mus musculus [20]): 1.4% | Activity [21]: Non-Toxic | half-life at 3 µM [22]: 7.8 min | Activity [23]: Non-Toxic | Activity (Mus musculus [24]): Dose-Dependent Effect | Activity (Mus musculus [25]): Dose-Dependent Effect | Activity [26]: Non-Toxic | Activity [27]: Non-Toxic | Activity (Mus musculus [28]): 7 cm | Drug uptake [29]: Active | Activity (Mus musculus [30]): 54.55% | Activity (Mus musculus [31]): 7.4% | Activity [32]: Non-Toxic | CLint scaled at 3 µM [33]: 581 mL/min/kg | Activity [34]: Non-Toxic | Activity [35]: Non-Toxic | half-life [36]: 156 min | bioavailability [37]: 21.7% | logP [38]: 5.3
